From patent US11421025B2, “Treatment of IL-17A diseases” (OSAKA UNIVERSITY, priority 2013, dated 2022)
Ends that are not written are not given here.

Key:
Type in all cases: in vivo
[1] = system: human IL-17A epitope (BSA conjugate); experiment: Antibody titer by ELISA after human IL-17A epitope vaccines in BALB/c mouse; details: 6 weeks from the first administration, 3 times at 2-week intervals (FIG. 18, 20, 21)
Protocol: Production of plate: Mouse IL-17A1 epitope+BSA conjugate and mouse IL-17A2 epitope+BSA conjugate were dispensed to a 96 well plate at a concentration of 10 μg/ml, and stood at 4° C. overnight. Recombinant mouse IL-17A was dispensed to a 96 well plate at a concentration of 0.25 μg/ml and stood at 4° C. overnight.
The aforementioned plate was washed once with PBS (200 μl), and blocked with 5% skim milk in PBS for 2 hr. The primary antibody (mouse antiserum) was serially diluted with 5% skim milk in PBS, applied by 50 μl to a 96 well plate, and incubated at 4° C. overnight.
The aforementioned plate was washed 7 times with PBS-T (0.05% Tween) (200 μl), the secondary antibody (anti-mouse IgG Ab-HRP-labeled) was diluted 1/1000 (5% skim milk), added by 50 μl, and incubated at ambient temperature for 3 hr. The plate was washed 3 times with PBS-T (0.05% Tween) (200 μl), TMB solution (50 μl) was added, shaded and incubated at ambient temperature for 30 min. 0.5N H2SO4 (50 μl) was added to discontinue the reaction and absorbance was measured at 450 nm.
(§1) A vaccine containing a peptide consisting of the following human IL-17A1 epitope (KLH conjugated) corresponding to mouse IL-17A1 epitope (RPSDYLNR (SEQ ID NO: 5)) was produced, and intradermally administered to BALB/c mouse 3 times at 2-week intervals. The serum antibody titer was measured at 6 weeks from the first administration according to the method described in Example 1.
In addition, a vaccine containing a peptide consisting of two kinds of epitopes (human IL-17A2 epitope, human IL-17A3 epitope) of the following human IL-17A (KLH conjugated) was produced, and intradermally administered to BALB/c mouse 3 times at 2-week intervals. The serum antibody titer was measured at 6 weeks from the first administration according to the method described in Example 1.
Furthermore, a vaccine containing a peptide consisting of the following human IL-17A4, which is a partial sequence of human IL-17A1 epitope (KLH conjugated), was produced. […]

[2] = molecular target: T1, mouse IL-17A1 epitope (BSA conjugate) (Mus musculus, UniProt Q62386); experiment: ELISA intersection reactivity of antiserum with mouse IL-17A1 epitope; details: serum of BALB/c mouse immunized with human epitope vaccine (FIG. 19A)
T1 construct: BSA-IL-17A1 (RPSDYLNR) conjugate (No5 BSA conjugate)
Protocol: The primary antibody (mouse antiserum) was diluted 10-fold, and then serially diluted by 5-fold and used. […]
as §1

[3] = system: DBA/1 mouse, arthritis caused by Type II collagen; experiment: Type II collagen arthritis model mouse, human IL-17A peptide vaccines; details: Experiment 8, KLH conjugated peptide vaccines (FIG. 22B)
Protocol: A vaccine containing a peptide consisting of human IL-17A1 epitope, human IL-17A2 epitope or human IL-17A4 epitope was administered to femoral muscle of each of the following 6-week-old male mice (KLH conjugated) 3 times at 2-week intervals (120 μg/60 μl×1 site/administration). Type II collagen and CFA (complete Freund's adjuvant) were administered at 28 days from the first vaccine administration, and Type II collagen and IFA (incomplete Freund's adjuvant) were administered at 42 days from the first vaccine administration, to induce arthritis. Thereafter, the level of arthritis was observed 3 times per week and scored.
H17 (human IL-17A1 epitope) group: 3 mice
AF4 (human IL-17A4 epitope) group: 3 mice
AF5 (human IL-17A2 epitope) group: 3 mice

| Substance | serum antibody titer [1] | intersection reactivity of serum with mouse IL-17A1 epitope [2] | clinical score of arthritis [3] |
| --- | --- | --- | --- |
| human IL-17A1 epitope: vaccine containing a peptide consisting of human IL-17A1 epitope RSSDYYNR (SEQ ID NO: 1), KLH conjugated (also: KLH conjugated; listed as Homo sapiens) | increased | showed intersection reactivity | suppressive effect on the onset and progression of arthritis |
| human IL-17A2 epitope: vaccine containing a peptide consisting of human IL-17A2 epitope ADGNVDYHMNSVPIQQE (SEQ ID NO: 8), KLH conjugated (also: KLH conjugated; listed as Homo sapiens) | increased |  | suppressive effect on the onset and progression of arthritis |
| human IL-17A4 epitope: vaccine containing a peptide consisting of human IL-17A4 epitope SDYYN (SEQ ID NO: 11), KLH conjugated (also: KLH conjugated; listed as Homo sapiens) | increased |  | suppressive effect on the onset and progression of arthritis |
